{"source": "ChEMBL document CHEMBL4265943", "about": "“Design and synthesis of potent dual inhibitors of JAK2 and HDAC based on fusing the pharmacophores of XL019 and vorinostat” (Eur J Med Chem, 2018)", "key": {"PC-3 [1]": {"tested_on": "PC-3", "assay": "Induction of apoptosis in human PC3 cells assessed as live cells at 1.07 uM after 72 hrs by Annexin V-FITC/propidium iodide staining based flow cytometry (reference value: 96.36%)", "assay_type": "functional"}, "HCT-116 [2]": {"tested_on": "HCT-116", "assay": "Induction of apoptosis in human HCT116 cells assessed as necrotic cells at 0.99 uM after 72 hrs by Annexin V-FITC/propidium iodide staining based flow cytometry (reference value: 1.54%)", "assay_type": "functional"}, "MDA-MB-231 [3]": {"tested_on": "MDA-MB-231", "assay": "Antiproliferative activity against human MDA-MB-231 cells after 72 hrs by MTT assay", "assay_type": "functional, cell-based", "conditions": "MDA-MB-231, 72 h"}, "MCF7 [4]": {"tested_on": "MCF7", "assay": "Induction of apoptosis in human MCF7 cells assessed as late apoptotic cells at 1.64 uM after 72 hrs by Annexin V-FITC/propidium iodide staining based flow cytometry (reference value: 1.59%)", "assay_type": "functional"}, "PC-3 [5]": {"tested_on": "PC-3", "assay": "Induction of apoptosis in human PC3 cells assessed as early apoptotic cells at 1.07 uM after 72 hrs by Annexin V-FITC/propidium iodide staining based flow cytometry (reference value: […]%)", "assay_type": "functional"}, "[6]": {"assay": "Selectivity index, ratio of CC50 for human AC10 cells to IC50 for human MCF7 cells", "assay_type": "toxicity", "conditions": "AC10 cells (CC50) and MCF7 cells (IC50)"}, "Histone deacetylase 1": {"molecular_target": "Histone deacetylase 1 (Homo sapiens, UniProt Q13547)", "sequence (Q13547 whole entry)": "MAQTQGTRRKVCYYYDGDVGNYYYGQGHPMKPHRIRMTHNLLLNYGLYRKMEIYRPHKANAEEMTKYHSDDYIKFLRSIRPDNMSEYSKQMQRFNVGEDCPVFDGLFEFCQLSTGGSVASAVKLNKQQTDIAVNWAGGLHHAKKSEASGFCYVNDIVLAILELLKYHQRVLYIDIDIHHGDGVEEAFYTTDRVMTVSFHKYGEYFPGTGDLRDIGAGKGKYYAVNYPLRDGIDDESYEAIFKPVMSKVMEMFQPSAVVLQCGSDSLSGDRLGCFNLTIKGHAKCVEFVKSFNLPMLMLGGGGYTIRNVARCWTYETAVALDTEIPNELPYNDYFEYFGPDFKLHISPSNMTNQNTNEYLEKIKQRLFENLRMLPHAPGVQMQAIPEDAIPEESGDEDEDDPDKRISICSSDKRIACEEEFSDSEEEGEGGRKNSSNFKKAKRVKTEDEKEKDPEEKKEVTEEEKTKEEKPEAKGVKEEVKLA", "assay": "Inhibition of HDAC1 (unknown origin) using Arg-His-Lys-Lys(Ac) as substrate preincubated with enzyme followed by substrate addition for 2 hrs and measured for 1.5 hrs at 15 mins time interval by fluorescence assay"}, "[7]": {"assay": "Selectivity index, ratio of CC50 for human AC10 cells to IC50 for human PC3 cells", "assay_type": "toxicity", "conditions": "AC10 cells (CC50) and PC3 cells (IC50)"}, "HCT-116 [8]": {"tested_on": "HCT-116", "assay": "Antiproliferative activity against human HCT116 cells after 72 hrs by MTT assay", "assay_type": "functional, cell-based", "conditions": "HCT-116, 72 h"}, "[9]": {"assay": "Selectivity index, ratio of CC50 for mouse TAMH cells to IC50 for human MCF7 cells", "assay_type": "toxicity", "conditions": "TAMH cells (CC50) and MCF7 cells (IC50)"}, "[10]": {"molecular_target": "T1, Protein deacetylase HDAC6 (Homo sapiens, UniProt Q9UBN7)", "T1 sequence (Q9UBN7 whole entry)": "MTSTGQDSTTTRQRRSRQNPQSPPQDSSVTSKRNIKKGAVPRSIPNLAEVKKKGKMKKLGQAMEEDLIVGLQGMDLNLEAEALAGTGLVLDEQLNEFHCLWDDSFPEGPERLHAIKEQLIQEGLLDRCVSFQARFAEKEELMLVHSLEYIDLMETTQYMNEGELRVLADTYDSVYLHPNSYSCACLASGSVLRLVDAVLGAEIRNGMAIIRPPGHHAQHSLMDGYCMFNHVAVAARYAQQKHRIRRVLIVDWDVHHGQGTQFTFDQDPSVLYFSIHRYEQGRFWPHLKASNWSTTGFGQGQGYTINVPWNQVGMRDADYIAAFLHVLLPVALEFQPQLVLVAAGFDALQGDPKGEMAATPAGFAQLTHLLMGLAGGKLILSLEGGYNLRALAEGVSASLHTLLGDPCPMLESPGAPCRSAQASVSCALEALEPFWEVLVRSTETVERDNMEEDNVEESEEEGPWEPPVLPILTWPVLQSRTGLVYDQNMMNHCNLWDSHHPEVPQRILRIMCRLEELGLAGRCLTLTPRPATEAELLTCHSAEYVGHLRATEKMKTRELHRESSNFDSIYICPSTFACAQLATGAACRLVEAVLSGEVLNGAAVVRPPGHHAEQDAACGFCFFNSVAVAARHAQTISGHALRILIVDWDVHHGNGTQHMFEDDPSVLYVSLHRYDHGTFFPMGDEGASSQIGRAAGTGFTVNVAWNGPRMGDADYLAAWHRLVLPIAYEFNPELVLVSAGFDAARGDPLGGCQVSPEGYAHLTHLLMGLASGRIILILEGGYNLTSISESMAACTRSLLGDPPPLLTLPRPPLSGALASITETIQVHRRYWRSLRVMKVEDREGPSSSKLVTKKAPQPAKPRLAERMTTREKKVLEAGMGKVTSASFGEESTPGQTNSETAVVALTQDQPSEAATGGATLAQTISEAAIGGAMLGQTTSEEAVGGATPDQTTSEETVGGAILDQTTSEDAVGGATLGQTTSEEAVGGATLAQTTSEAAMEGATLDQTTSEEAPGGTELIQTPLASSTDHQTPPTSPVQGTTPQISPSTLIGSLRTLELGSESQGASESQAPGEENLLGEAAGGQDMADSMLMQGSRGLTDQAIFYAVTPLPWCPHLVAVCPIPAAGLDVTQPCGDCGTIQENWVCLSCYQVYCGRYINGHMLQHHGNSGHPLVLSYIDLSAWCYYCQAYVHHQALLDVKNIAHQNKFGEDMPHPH", "assay": "Inhibition of HDAC6 (unknown origin) using Arg-His-Lys-Lys(Ac) as substrate preincubated with enzyme followed by substrate addition for 2 hrs and measured for 1.5 hrs at 15 mins time interval by fluorescence assay"}, "MDA-MB-231 [11]": {"tested_on": "MDA-MB-231", "assay": "Induction of apoptosis in human MDA-MB-231 cells assessed as late apoptotic cells at 0.85 uM after 72 hrs by Annexin V-FITC/propidium iodide staining based flow cytometry (reference value: 2.12%)", "assay_type": "functional"}, "PC-3 [12]": {"tested_on": "PC-3", "assay": "Induction of apoptosis in human PC3 cells assessed as late apoptotic cells at 1.07 uM after 72 hrs by Annexin V-FITC/propidium iodide staining based flow cytometry (reference value: 1.01%)", "assay_type": "functional"}, "PC-3 [13]": {"tested_on": "PC-3", "assay": "Induction of apoptosis in human PC3 cells assessed as necrotic cells at 1.07 uM after 72 hrs by Annexin V-FITC/propidium iodide staining based flow cytometry (reference value: 0.66%)", "assay_type": "functional"}, "[14]": {"assay": "Antiproliferative activity against human AC10 cells after 72 hrs by MTT assay", "assay_type": "cell-based"}, "[15]": {"assay": "Selectivity index, ratio of CC50 for mouse TAMH cells to IC50 for human PC3 cells", "assay_type": "toxicity", "conditions": "TAMH cells (CC50) and PC3 cells (IC50)"}, "[16]": {"assay": "Selectivity index, ratio of CC50 for mouse TAMH cells to IC50 for human MDA-MB-231 cells", "assay_type": "toxicity", "conditions": "TAMH cells (CC50) and MDA-MB-231 cells (IC50)"}, "HCT-116 [17]": {"tested_on": "HCT-116", "assay": "Induction of apoptosis in human HCT116 cells assessed as late apoptotic cells at 0.99 uM after 72 hrs by Annexin V-FITC/propidium iodide staining based flow cytometry (reference value: 1.45%)", "assay_type": "functional"}, "[18]": {"assay": "Antiproliferative activity against mouse TAMH cells after 72 hrs by MTT assay", "assay_type": "cell-based"}, "MDA-MB-231 [19]": {"tested_on": "MDA-MB-231", "assay": "Induction of apoptosis in human MDA-MB-231 cells assessed as necrotic cells at 0.85 uM after 72 hrs by Annexin V-FITC/propidium iodide staining based flow cytometry (reference value: 5.45%)", "assay_type": "functional"}, "MDA-MB-231 [20]": {"tested_on": "MDA-MB-231", "assay": "Induction of apoptosis in human MDA-MB-231 cells assessed as live cells at 0.85 uM after 72 hrs by Annexin V-FITC/propidium iodide staining based flow cytometry (reference value: 90.98%)", "assay_type": "functional"}, "MCF7 [21]": {"tested_on": "MCF7", "assay": "Antiproliferative activity against human MCF7 cells after 72 hrs by MTT assay", "assay_type": "functional, cell-based", "conditions": "MCF7, 72 h"}, "[22]": {"assay": "Selectivity index, ratio of CC50 for human AC10 cells to IC50 for human MDA-MB-231 cells", "assay_type": "toxicity", "conditions": "AC10 cells (CC50) and MDA-MB-231 cells (IC50)"}, "MCF7 [23]": {"tested_on": "MCF7", "assay": "Induction of apoptosis in human MCF7 cells assessed as live cells at 1.64 uM after 72 hrs by Annexin V-FITC/propidium iodide staining based flow cytometry (reference value: 95.05%)", "assay_type": "functional"}, "MDA-MB-231 [24]": {"tested_on": "MDA-MB-231", "assay": "Induction of apoptosis in human MDA-MB-231 cells assessed as early apoptotic cells at 0.85 uM after 72 hrs by Annexin V-FITC/propidium iodide staining based flow cytometry (reference value: 1.45%)", "assay_type": "functional"}, "MCF7 [25]": {"tested_on": "MCF7", "assay": "Induction of apoptosis in human MCF7 cells assessed as early apoptotic cells at 1.64 uM after 72 hrs by Annexin V-FITC/propidium iodide staining based flow cytometry (reference value: 1.19%)", "assay_type": "functional"}, "[26]": {"molecular_target": "Tyrosine-protein kinase JAK2 (Homo sapiens, UniProt O60674)", "sequence (O60674 whole entry)": "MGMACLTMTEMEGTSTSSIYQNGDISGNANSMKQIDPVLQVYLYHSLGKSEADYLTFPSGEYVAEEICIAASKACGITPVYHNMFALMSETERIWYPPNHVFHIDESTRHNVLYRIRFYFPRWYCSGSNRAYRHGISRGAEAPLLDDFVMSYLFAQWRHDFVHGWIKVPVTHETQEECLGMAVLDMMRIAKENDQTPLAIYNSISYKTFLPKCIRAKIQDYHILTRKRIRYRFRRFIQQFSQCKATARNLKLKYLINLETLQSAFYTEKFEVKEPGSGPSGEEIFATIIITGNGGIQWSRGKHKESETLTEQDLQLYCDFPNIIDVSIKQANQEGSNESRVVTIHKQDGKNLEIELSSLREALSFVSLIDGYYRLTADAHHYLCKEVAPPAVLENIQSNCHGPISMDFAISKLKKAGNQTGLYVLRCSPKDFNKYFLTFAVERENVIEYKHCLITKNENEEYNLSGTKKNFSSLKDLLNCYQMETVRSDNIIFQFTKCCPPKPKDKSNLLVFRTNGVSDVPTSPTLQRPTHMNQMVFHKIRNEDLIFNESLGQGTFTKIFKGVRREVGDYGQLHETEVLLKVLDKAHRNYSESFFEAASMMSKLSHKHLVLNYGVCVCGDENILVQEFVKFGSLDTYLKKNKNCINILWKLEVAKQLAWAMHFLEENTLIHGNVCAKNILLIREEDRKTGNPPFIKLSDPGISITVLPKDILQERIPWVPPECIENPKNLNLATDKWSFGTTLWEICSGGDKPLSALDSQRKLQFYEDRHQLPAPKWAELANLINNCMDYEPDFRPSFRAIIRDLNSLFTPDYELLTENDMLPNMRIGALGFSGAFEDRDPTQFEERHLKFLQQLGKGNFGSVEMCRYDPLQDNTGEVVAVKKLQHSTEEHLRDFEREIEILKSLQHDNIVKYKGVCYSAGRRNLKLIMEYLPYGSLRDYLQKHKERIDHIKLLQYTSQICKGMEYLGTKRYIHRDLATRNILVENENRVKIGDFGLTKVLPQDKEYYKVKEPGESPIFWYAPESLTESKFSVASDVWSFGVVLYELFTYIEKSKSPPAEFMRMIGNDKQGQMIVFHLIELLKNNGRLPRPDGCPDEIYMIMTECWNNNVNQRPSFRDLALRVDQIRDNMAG", "assay": "Inhibition of human JAK2 using poly(Glu:Tyr)(4:1) as substrate preincubated for 20 mins followed by [gamma33P]ATP addition measured after 120 mins by ion exchange filter paper method"}, "HCT-116 [27]": {"tested_on": "HCT-116", "assay": "Induction of apoptosis in human HCT116 cells assessed as live cells at 0.99 uM after 72 hrs by Annexin V-FITC/propidium iodide staining based flow cytometry (reference value: 95.7%)", "assay_type": "functional"}, "HCT-116 [28]": {"tested_on": "HCT-116", "assay": "Induction of apoptosis in human HCT116 cells assessed as early apoptotic cells at 0.99 uM after 72 hrs by Annexin V-FITC/propidium iodide staining based flow cytometry (reference value: 1.31%)", "assay_type": "functional"}, "PC-3 [29]": {"tested_on": "PC-3", "assay": "Antiproliferative activity against human PC3 cells after 72 hrs by MTT assay", "assay_type": "functional, cell-based", "conditions": "PC-3, 72 h"}, "MCF7 [30]": {"tested_on": "MCF7", "assay": "Induction of apoptosis in human MCF7 cells assessed as necrotic cells at 1.64 uM after 72 hrs by Annexin V-FITC/propidium iodide staining based flow cytometry (reference value: 2.17%)", "assay_type": "functional"}}}
{"smiles": "CN1CCN(c2ccc(Nc3nccc(-c4ccc(NC(=O)CCCCCCC(=O)NO)cc4)n3)cc2)CC1", "values": [{"measurement": "Activity", "setting": "PC-3 [1]", "result": 5.35, "unit": "%"}, {"measurement": "Activity", "setting": "HCT-116 [2]", "result": 4.69, "unit": "%"}, {"measurement": "IC50", "setting": "MDA-MB-231 [3]", "result": 910, "unit": "nM"}, {"measurement": "Activity", "setting": "MCF7 [4]", "result": 3.37, "unit": "%"}, {"measurement": "Activity", "setting": "PC-3 [5]", "result": 73.28, "unit": "%"}, {"measurement": "selectivity ratio", "setting": "[6]", "result": 2.06}, {"measurement": "IC50", "setting": "Histone deacetylase 1", "result": 77, "unit": "nM"}, {"measurement": "selectivity ratio", "setting": "[7]", "result": 3.25}, {"measurement": "IC50", "setting": "HCT-116 [8]", "result": 990, "unit": "nM"}, {"measurement": "selectivity ratio", "setting": "[9]", "result": 3.38}, {"measurement": "IC50", "setting": "[10]", "result": 3.1, "unit": "nM"}, {"measurement": "Activity", "setting": "MDA-MB-231 [11]", "result": 40.56, "unit": "%"}, {"measurement": "Activity", "setting": "PC-3 [12]", "result": 19.83, "unit": "%"}, {"measurement": "Activity", "setting": "PC-3 [13]", "result": 1.54, "unit": "%"}, {"measurement": "CC50 at 72 h", "setting": "[14]", "result": 3310, "unit": "nM"}, {"measurement": "selectivity ratio", "setting": "[15]", "result": 5.33}, {"measurement": "selectivity ratio", "setting": "[16]", "result": 5.98}, {"measurement": "Activity", "setting": "HCT-116 [17]", "result": 6.43, "unit": "%"}, {"measurement": "CC50 at 72 h", "setting": "[18]", "result": 5440, "unit": "nM"}, {"measurement": "Activity", "setting": "MDA-MB-231 [19]", "result": 6.84, "unit": "%"}, {"measurement": "Activity", "setting": "MDA-MB-231 [20]", "result": 13.2, "unit": "%"}, {"measurement": "IC50", "setting": "MCF7 [21]", "result": 1610, "unit": "nM"}, {"measurement": "selectivity ratio", "setting": "[22]", "result": 3.64}, {"measurement": "Activity", "setting": "MCF7 [23]", "result": 88.21, "unit": "%"}, {"measurement": "Activity", "setting": "MDA-MB-231 [24]", "result": 39.4, "unit": "%"}, {"measurement": "Activity", "setting": "MCF7 [25]", "result": 6.54, "unit": "%"}, {"measurement": "IC50", "setting": "[26]", "result": 4.6, "unit": "nM"}, {"measurement": "Activity", "setting": "HCT-116 [27]", "result": 83.01, "unit": "%"}, {"measurement": "Activity", "setting": "HCT-116 [28]", "result": 5.87, "unit": "%"}, {"measurement": "IC50", "setting": "PC-3 [29]", "result": 1020, "unit": "nM"}, {"measurement": "Activity", "setting": "MCF7 [30]", "result": 1.88, "unit": "%"}]}
